Assay results published in patent publication US20070179716A1, “Crystal structure of cytochrome P450 3A4 and uses thereof” (ASTEX THERAPEUTICS LIMITED, priority 2001, published 2007).

Key:
[1] = biological target: human cytochrome P450 3A4 (Homo sapiens, UniProt P08684)
Experimental: 3A4 protein produced essentially as described in “Protein purification (3)” above was used to obtain co-crystals with metyrapone, apart from replacing the CM-Sepharose column with a CM-fast flow column. Co-crystals of metyrapone were generated using crystallisation conditions of 0.1M Hepes pH 7.5, 0.25M sodium chloride, 5% MPD, 50 mM Calcium chloride, 10% (w/v) PEG 4000, and soaking the crystals in 0.5 mM metyrapone for 4 hours. […] The Fe—N bond distance was loosely restrained to […] during the refinement.
3A4 protein produced essentially as described in “Protein purification (3)” above was used to obtain co-crystals with progesterone, apart from replacing the CM-Sepharose column with a CM-fast flow column. Co-crystals of progesterone were obtained by co-crystallisation using 0.5 mM progesterone in 2.5% ethanol and crystallisation conditions of 0.1M HEPES pH 7.5, 0.25M potassium chloride, 12% (w/v) PEG 4000, 5% (w/v) MPD, 25 mM calcium chloride.
Molecular replacement was performed using the program AMORE and using the CYP3A4 crystal structure described in Table 1 as the search model. […] This molecular replacement model was then used as a starting model for subsequent refinement of other datasets from crystal form 2.
Apo (compound-free) crystals of 3A4 were obtained by setting up a 1:1 ratio of protein (at 36.5 mg/ml in buffer, 10 mM KPi, pH7.2, 20% glycerol, 1 mM EDTA, 2 mM DTT, 0.5M KCl) against 0.1 M Hepes-NaOH pH 7.5, 1.44 M sodium citrate.
Apo (compound-free) crystals of 3A4 were generated by setting up a 1:1 ratio of protein (at 36.5 mg/ml in buffer, 10 mM KPi, pH7.2, 20% glycerol, 1 mM EDTA, 2 mM DTT, 0.5M KCl) against 0.1M Hepes-NaOH pH 7.5, 1.424M Sodium citrate. The resulting crystals were soaked for 18 hours in a mother liquor containing 5 mM fluconazole, and then frozen using 0.1M Hepes-NaOH pH7.5, 1.4M sodium citrate, 15% glycerol.

[2] = biological target: T1, CYP3A4 (Homo sapiens, UniProt P08684); assay: UV/visible spectroscopy of inhibitor binding in solution; details: UV/visible spectroscopic data (not shown)
T1 construct: made in house; host or cells: E. coli XL1 Blue
T1 sequence (P08684 with tags, fused parts or gaps): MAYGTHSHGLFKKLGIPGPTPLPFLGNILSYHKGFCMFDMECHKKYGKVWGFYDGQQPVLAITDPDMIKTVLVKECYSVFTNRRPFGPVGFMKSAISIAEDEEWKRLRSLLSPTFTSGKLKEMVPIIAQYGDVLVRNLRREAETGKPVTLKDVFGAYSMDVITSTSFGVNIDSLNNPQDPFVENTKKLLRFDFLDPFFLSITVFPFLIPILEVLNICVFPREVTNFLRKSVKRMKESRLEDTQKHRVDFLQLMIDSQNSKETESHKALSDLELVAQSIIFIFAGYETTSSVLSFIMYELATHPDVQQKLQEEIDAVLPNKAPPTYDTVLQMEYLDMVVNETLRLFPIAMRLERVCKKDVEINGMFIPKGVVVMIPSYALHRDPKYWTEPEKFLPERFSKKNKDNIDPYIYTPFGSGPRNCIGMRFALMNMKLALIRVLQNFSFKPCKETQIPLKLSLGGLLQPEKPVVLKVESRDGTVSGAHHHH

Sequence of human cytochrome P450 3A4 (P08684 with tags, fused parts or gaps): as above

Row | distance of the compound (nearest atom) from the haem iron [1] | separation of the two bound copies of the compound [1] | volume occupied by the molecule in the active site [1] [Å^3] | binding mode in solution [2] | Compound | binding position of the compound in the 3A4 crystal structure [1]
1 | approximately 14 Å | approximately 7 Å |  |  | OC(Cn1cncn1)(Cn1cncn1)c1ccc(F)cc1F [fluconazole] | 
2 |  |  | 50 | liganded to the haem | CC(C)(C(=O)c1cccnc1)c1cccnc1 [metyrapone] | bound directly to the haem iron via a pyridine nitrogen
3 |  |  |  |  | CC(=O)[C@H]1CC[C@H]2[C@@H]3CCC4=CC(=O)CC[C@]4(C)[C@H]3CC[C@]12C [progesterone] | bound at a peripheral site very close to the Phe-cluster
